# In article PMC13058460, “PET-MRI biomarkers reveal efficacy of a novel NLRP3 inhibitor in Parkinson’s disease models” (Brain, 2025):
# Read-outs that look alike come from different tables or passages of the source.
# Tests used:
# [1] = Single-dose pharmacokinetics (plasma and brain) in C57BL/6J mice; format: in vivo, mouse; details: for Tolerability in single-dose pharmacokinetic studies: fasted male C57BL/6J mice, i.v. 4 mg/kg or oral 20 mg/kg; for bioavailability / Oral half-life: plasma; for bioavailability: oral, p.o. 20 mg/kg vs i.v. 4 mg/kg; for Oral half-life: p.o. 20 mg/kg
# CYP1A2 = target: T1, CYP1A2 (Homo sapiens, UniProt P05177); experiment: CYP1A2 inhibition
# T1 sequence (P05177 1-516): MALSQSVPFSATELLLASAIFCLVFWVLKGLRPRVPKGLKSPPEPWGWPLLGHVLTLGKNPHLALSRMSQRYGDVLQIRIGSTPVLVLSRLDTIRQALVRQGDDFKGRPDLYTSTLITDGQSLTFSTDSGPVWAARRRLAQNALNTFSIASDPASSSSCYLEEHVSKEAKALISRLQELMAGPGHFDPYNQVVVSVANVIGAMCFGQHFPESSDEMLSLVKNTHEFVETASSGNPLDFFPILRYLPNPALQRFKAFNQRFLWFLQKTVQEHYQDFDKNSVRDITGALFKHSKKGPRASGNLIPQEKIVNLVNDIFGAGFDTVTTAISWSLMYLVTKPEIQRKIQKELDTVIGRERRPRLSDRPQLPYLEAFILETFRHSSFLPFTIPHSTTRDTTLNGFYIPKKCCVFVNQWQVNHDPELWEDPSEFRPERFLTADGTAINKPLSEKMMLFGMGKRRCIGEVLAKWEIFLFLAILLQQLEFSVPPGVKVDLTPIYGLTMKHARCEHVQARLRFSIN
# CYP2C9 = CYP2C9 (Homo sapiens, UniProt P11712); experiment: CYP2C9 inhibition
# Chain of CYP2C9 (P11712 whole entry): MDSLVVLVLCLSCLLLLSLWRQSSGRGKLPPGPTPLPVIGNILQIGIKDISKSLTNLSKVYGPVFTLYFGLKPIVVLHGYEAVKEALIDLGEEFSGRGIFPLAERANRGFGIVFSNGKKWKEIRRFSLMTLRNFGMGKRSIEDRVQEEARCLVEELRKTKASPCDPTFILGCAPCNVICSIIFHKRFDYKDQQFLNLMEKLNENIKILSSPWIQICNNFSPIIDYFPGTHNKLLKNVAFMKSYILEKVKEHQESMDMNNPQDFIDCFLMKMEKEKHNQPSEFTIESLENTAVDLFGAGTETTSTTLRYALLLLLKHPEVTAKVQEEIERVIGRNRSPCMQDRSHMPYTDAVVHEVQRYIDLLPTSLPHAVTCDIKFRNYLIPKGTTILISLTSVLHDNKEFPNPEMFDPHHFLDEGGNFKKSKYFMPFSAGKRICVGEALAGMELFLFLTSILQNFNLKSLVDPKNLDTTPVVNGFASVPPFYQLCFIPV
# Method: (§5) LM – Liver microsome (half-life in minutes)
# PPB – Plasma Protein Binding
# (§6) PS – Plasma Stability (% remaining at 2 hours)
# CYP2D6 = CYP2D6 (Homo sapiens, UniProt P10635); experiment: CYP2D6 inhibition
# Chain of CYP2D6 (P10635 whole entry): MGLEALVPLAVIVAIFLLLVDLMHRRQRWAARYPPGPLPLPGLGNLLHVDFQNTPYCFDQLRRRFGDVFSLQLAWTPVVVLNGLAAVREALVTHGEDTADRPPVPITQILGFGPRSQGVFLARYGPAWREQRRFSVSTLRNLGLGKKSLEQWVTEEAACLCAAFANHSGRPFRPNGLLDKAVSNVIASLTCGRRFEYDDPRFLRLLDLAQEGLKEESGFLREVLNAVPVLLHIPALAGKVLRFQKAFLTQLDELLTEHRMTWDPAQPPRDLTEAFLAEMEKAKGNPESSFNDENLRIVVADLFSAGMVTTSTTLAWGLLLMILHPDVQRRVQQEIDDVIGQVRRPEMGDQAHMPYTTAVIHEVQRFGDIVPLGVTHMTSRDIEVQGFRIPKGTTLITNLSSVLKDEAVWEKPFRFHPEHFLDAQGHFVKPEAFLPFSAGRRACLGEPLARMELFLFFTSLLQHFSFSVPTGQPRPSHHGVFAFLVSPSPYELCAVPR
# Method: as §5
# PPB – Plasma Protein Binding
# as §6
# CYP3A4 = CYP3A4 (Homo sapiens, UniProt P08684); experiment: CYP3A4 inhibition
# Chain of CYP3A4 (P08684 whole entry): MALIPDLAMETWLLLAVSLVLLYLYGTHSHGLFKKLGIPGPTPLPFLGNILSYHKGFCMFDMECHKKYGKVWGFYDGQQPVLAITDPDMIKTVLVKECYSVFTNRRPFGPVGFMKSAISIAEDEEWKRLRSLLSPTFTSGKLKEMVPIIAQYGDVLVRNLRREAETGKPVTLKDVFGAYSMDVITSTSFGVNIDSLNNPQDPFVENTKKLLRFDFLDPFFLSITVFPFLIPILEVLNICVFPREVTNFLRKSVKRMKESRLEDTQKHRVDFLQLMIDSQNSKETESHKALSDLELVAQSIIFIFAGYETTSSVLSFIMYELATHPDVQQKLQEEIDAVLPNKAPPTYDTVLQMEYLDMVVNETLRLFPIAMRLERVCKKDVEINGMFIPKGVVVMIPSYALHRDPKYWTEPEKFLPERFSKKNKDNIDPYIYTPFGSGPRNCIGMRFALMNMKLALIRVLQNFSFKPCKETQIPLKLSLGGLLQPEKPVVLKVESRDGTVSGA
# Method: as §5
# PPB – Plasma Protein Binding
# as §6
# [2] = target: hERG (human ether-a-go-go K+ ion channel) (Homo sapiens, UniProt Q12809); experiment: hERG QPatch assay
# Chain of hERG (human ether-a-go-go K+ ion channel) (Q12809 whole entry): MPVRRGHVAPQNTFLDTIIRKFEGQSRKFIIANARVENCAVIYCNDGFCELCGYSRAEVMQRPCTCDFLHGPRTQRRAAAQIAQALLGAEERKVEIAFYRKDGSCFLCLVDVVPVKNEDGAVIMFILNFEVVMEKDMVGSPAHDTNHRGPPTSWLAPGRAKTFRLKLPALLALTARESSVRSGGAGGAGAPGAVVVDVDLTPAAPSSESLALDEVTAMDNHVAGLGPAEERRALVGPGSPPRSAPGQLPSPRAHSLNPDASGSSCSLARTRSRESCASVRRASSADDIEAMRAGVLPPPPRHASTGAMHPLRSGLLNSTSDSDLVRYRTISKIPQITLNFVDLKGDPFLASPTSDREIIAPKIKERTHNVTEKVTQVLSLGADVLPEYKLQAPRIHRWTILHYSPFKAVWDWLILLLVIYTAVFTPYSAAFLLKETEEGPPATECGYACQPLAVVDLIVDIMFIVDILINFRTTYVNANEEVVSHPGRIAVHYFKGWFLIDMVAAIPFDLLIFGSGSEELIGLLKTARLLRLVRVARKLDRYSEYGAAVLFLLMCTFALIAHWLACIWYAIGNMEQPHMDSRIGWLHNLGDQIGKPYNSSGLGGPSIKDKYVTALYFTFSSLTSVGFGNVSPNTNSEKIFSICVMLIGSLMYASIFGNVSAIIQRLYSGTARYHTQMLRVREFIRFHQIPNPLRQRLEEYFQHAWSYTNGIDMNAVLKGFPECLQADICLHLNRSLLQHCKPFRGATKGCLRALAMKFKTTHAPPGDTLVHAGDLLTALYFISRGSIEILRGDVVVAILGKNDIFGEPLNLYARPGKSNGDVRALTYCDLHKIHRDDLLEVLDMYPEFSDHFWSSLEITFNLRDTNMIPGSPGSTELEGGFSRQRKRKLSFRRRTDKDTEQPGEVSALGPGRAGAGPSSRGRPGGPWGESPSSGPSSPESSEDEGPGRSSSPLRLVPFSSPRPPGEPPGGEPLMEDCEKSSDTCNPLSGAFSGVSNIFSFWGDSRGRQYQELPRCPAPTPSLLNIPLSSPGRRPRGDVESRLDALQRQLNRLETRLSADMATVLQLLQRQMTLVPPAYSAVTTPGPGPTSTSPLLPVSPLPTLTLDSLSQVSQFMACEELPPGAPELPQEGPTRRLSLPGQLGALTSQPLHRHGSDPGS
# Method: as §5
# PPB – Plasma Protein Binding
# as §6
# Human plasma stability = details: % remaining at 2 hours
# Method: as §5
# PPB – Plasma Protein Binding
# as §6
# Mouse plasma stability = details: % remaining at 2 hours
# Method: as §5
# PPB – Plasma Protein Binding
# as §6
# [3] = Human plasma protein binding
# Method: as §5
# PPB – Plasma Protein Binding
# as §6
# [4] = Mouse plasma protein binding
# Method: as §5
# PPB – Plasma Protein Binding
# as §6
# [5] = Human liver microsome stability; details: liver microsomes
# Method: as §5
# PPB – Plasma Protein Binding
# as §6
# [6] = Mouse liver microsome stability; details: liver microsomes
# Method: as §5
# PPB – Plasma Protein Binding
# as §6
# NLRC4 inflammasome = target: T2, NLRC4 inflammasome (Mus musculus, UniProt Q3UP24); experiment: NLRC4 inflammasome activation by S. typhimurium in bone marrow macrophages; format: cell-based; details: C57BL/6J bone marrow macrophages stimulated with S. typhimurium; n=2
# T2 construct: marrow cells were isolated from C57BL/6J mice and cultured macrophages stimulated with S; endogenous in cells; host or cells: bone-marrow-derived macrophages from C57BL/6J mice
# T2 sequence (Q3UP24 whole entry): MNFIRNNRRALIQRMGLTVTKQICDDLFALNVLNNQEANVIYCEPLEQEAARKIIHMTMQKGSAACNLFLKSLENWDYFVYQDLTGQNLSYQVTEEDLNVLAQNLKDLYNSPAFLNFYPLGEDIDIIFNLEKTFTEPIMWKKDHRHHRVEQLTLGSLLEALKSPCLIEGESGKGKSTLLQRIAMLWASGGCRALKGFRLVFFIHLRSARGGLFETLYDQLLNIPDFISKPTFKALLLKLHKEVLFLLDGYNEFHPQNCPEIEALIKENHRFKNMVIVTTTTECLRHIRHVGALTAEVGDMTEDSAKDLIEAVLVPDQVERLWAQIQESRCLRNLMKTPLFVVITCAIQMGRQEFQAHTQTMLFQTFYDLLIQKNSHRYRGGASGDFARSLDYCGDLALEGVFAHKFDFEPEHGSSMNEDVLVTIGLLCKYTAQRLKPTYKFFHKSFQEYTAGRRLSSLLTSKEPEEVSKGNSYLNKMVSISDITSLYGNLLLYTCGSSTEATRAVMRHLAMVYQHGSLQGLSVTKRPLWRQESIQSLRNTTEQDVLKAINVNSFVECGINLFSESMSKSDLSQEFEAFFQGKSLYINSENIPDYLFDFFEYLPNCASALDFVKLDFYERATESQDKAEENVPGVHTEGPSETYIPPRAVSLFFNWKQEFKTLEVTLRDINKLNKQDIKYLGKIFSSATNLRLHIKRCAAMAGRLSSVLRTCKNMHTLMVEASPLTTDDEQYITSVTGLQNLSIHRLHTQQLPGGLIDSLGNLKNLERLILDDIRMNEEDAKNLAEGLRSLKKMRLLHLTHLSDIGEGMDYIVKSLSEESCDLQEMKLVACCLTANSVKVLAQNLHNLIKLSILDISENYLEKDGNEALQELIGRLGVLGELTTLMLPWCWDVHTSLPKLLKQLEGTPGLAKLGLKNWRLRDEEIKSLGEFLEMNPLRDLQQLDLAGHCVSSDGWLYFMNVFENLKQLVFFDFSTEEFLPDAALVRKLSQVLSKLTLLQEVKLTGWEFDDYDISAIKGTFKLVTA
# From the text: (§1) marrow cells were isolated from C57BL/6J mice and cultured macrophages stimulated with S.
# (§2) typhimurium (S.typ) and poly(dA:dT) to activate [A] NLRC4 and [B] AIM2 inflammasomes. No […]
# AIM2 inflammasome = target: T3, AIM2 inflammasome (Mus musculus, UniProt Q91VJ1); experiment: AIM2 inflammasome activation by poly(dA:dT) in bone marrow macrophages; format: cell-based; details: C57BL/6J bone marrow macrophages stimulated with poly(dA:dT); n=2
# T3 construct: marrow cells were isolated from C57BL/6J mice and cultured macrophages stimulated with S; endogenous in cells; host or cells: bone-marrow-derived macrophages from C57BL/6J mice
# T3 sequence (Q91VJ1 1-354): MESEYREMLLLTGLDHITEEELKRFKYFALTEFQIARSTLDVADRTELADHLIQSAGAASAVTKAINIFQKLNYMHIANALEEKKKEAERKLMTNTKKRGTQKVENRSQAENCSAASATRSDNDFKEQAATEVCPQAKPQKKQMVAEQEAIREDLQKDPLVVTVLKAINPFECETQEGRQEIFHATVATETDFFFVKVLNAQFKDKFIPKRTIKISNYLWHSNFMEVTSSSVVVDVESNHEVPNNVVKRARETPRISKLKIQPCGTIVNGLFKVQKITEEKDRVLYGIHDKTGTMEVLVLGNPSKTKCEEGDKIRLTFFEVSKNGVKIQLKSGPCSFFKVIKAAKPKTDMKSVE
# From the text: as §1, §2
# [7] = tested on: 95 targets (Eurofins Cerep panel); experiment: Off-target screen, Eurofins Cerep panel (binding, enzyme and uptake assays); details: 10uM
# Method: (10uM) was screened for inhibition or activation activities at 95 targets (Eurofins Cerep panel) in
# binding and enzyme and uptake assays. […]
# [8] = tested on: 6-OHDA Parkinson's mouse model; experiment: 6-OHDA mouse model, PET/MRI imaging study with MCC7840 in drinking water; format: in vivo; details: 0.3 mg/ml in drinking water
# Method: (§3) The Supplementary material contains detailed treatment regimens.
# (§4) Blood was collected in ethylenediaminetetraacetic acid (EDTA) tubes, plasma aliquoted and stored at −80°C. IL-1β was quantified by ELISA (R&D Systems). Extended methods are in the Supplementary material.
# On Days 24–28 post-surgery, mice underwent PET/MRI with ^18F-DPA-714 (Day 24), ^18F-FBCTT (Day 26) and ^18F-FDOPA (Day 28) to assess microglial activation, dopamine transporter function and presynaptic dopamine synthesis, respectively. Standardized uptake value ratios (SUVRs) were calculated as ipsilateral/contralateral striatum ratios. Detailed acquisition and analysis methods are provided in the Supplementary material.
# The microglial IC50 and IC90 values are shown with dotted lines. (B) Schematic of the 6-OHDA imaging study [created in BioRender. […] (C) Amphetamine-induced ipsilateral rotations at Day 17. (D–F) Structures of ^18F-DPA-714, ^18F-FBCTT and ^18F-FDOPA. […] (H) Time-activity curves for ^18F-DPA-714 generated from dynamic imaging and presented as standard uptake value ratio from ipsilateral to contralateral hemispheres (standardized uptake value ratio, SUV-ratios). The 60 min imaging time point is shown on the right. (I) Representative brain PET/MRI images and (J) quantitative SUV-ratios for ^18F-FBCTT. […] (K) Representative brain PET/MRI images and (L) quantitative SUV-ratios for ^18F-FDOPA. […] (M–O) MRI blood–brain barrier leakage measurement of gadolinium T1 relaxation time values in ipsilateral (M) and contralateral (N) hemispheres and expressed as a ratio (O). (P) Plasma IL-1β concentrations in mice at Day 28. […] SUV-BW = standard uptake value corrected for body weight.
# To perform PET imaging, the same mouse was intravenously administered three radiotracers at sequential time points: ^18F-DPA-714 at Day 24 to label TSPO and neuroinflammation (Fig. 5D), ^18F-FBCTT at Day 26 to label dopamine transporter (DAT) availability (Fig. 5E)[42] and ^18F-FDOPA at Day 28 to label dopamine uptake (Fig. 5F),[43] following 6-OHDA or saline injection. At each time point, mice were anaesthetized and imaged using PET/MRI to visualize radiotracer uptake in the brains of living mice (Fig. 5B).
# DOPA and F-rac-DOPA. Chiral HPLC method: Daicel Crownpak CR+ (4.0 × 150mm x 5µm, Part No. 27714), Flow rate = 0.8ml/min with 100% (perchloric acid pH 2.0).
# PET/MRI imaging in the 6-OHDA model
# Twenty-four days post-surgery, mice from each experimental group were injected with a radiotracer every second day in a group of 3-4 mice per imaging week. Three different radiotracers were used on three different days. [18F]DPA-714 (24th day post-surgery) was used to target the translocator protein, TSPO, overexpressed in activated microglia during neuroinflammation. […]
# PFF-Syn mouse model = experiment: PFF-Syn Parkinson's disease mouse model, preventative and therapeutic dosing in drinking water; format: in vivo
# Method: Recombinant human α-synuclein (rPeptide) was incubated in PBS at 37°C, 400 rpm, for 7 days with daily sonication cycle. Fibril formation was validated by transmission electron microscopy (TEM) and Thioflavin T fluorescence.[34],[35]
# as §3, §4
# Mice traversed a 0.5 cm × 1 m beam apparatus; latency to cross was measured at 4, 6, 8 and 10 months post-PFF-Syn.
# Accelerated rotarod (5–40 rpm over 5 min) assessed latency to fall at 4, 6, 8 and 10 months post-PFF-Syn as previously described.[17],[18]
# At 11 months post-PFF injection, mice were scanned with ^18F-DPA-714 PET/MRI. Regions of interest (ROIs) were anatomically defined in striatum using MRI guidance. SUVRs and T1 relaxation times were calculated. Extended imaging parameters are in the Supplementary material.
# (A) Schematic of the PFF-Syn study [created in BioRender. […] (B–E) Rotarod and (F–I) balance-beam testing of mice at 4, 6, 8 and 10 months post PFF-Syn or saline injection (n = 8–10/group). […] (K) Time-activity curves for ^18F-DPA-714 generated from dynamic imaging and presented as standard uptake value ratio (SUV-ratio) from ipsilateral to contralateral hemispheres (n = 4–8/group). (L) Sixty minute SUV-ratio time point for data in L. (M) Representative autoradiography images for ^18F-DPA-714 from brain slices taken following PET imaging. (N) Quantitation of ^18F-DPA-714 autoradiography, and blockade of signal with PK11195. (O) Representative immunohistochemistry for microglial marker ionized calcium-binding adaptor molecule 1 (Iba1; green) from brain slices taken following PET imaging; cell nuclei 4′,6-diamidino-2-phenylindole (DAPI; blue). Square dotted line box in M represents approximate region imaged; magnification ×40, scale bars = 20 μm. (P) Ipsilateral striatal dopamine quantitation, and (Q) plasma interleukin (IL)-1β concentrations in mice after completion of PET imaging experiments (n = 4–8/group).
# healthy subjects = tested on: healthy subjects; set-up: method as in NCT04015076; details: randomized, double-blinded, placebo-controlled, single and multiple ascending dose, ref NCT04015076; cited from earlier work
# [9] = tested on: 6-OHDA Parkinson's mouse model; experiment: 6-OHDA Parkinson's mouse model, oral gavage dose response (rotations, striatal dopamine); details: for ED50: Mus musculus
# Method: 6-hydroxydopamine (6-OHDA; Sigma) was dissolved in saline with 0.2% ascorbic acid to a final injected dose of 12 μg as previously described.[18]
# Mice received analgesics and fluids and were placed on a heat pad until recovery.
# D-amphetamine (2 mg/kg) was administered either 17 or 21 days post-6-OHDA; net ipsilateral turns over 10 min were recorded.
# Striatal dopamine and metabolites were quantified by LC-MS/MS as previously described.[36]
# (B) Amphetamine-induced ipsilateral rotations at Day 21, and (C–E) levels of striatal dopamine, 3,4-dihydroxyphenylacetic acid (DOPAC) and homovanillic acid (HVA) 28 days following saline or 6-OHDA injection. […] Data in B–E are presented as box-whisker plot with median (line), 25th to 75th percentiles (box) and full range (whiskers) shown. **P < 0.01, ***P < 0.001 by one-way ANOVA (two-tailed), and Dunnett’s post-test comparing to untreated 6-OHDA group.
# administration to fasted 8–10-week-old C57BL/6J male mice was performed using an adapted method as previously described (30). At the relevant time point following dosing, blood samples were collected for plasma and the brain perfused with PBS for 5 min; CSF was also collected from separate groups of mice. Brain homogenates were prepared from dissected brains by homogenizing total brain (0.5 g) with four volumes (2 mL) of deionized water.
# C57BL/6J mice were anaesthetized using ketamine hydrochloride (100 mg/kg) and xylazine (10 mg/kg), and were placed into a stereotactic frame with nose and ear bars specially adapted for mice. A digital stereotaxic instrument was used with a 5 μL Hamilton syringe to deliver either a sterile saline solution (0.9% sodium chloride) containing 0.2% ascorbic acid, 6-hydroxydopamine (6-OHDA; 12 μg) dissolved in saline containing 0.2% ascorbic acid, α-synuclein pre-formed fibrils (PFF-Syn; 8 μg in PBS), or PBS alone, into the right dorsal striatum of mice at the following stereotaxic coordinates relative to bregma (mm): -2.0 medial-lateral, + 0.5 anterior-posterior, -3.0 mm dorsal-ventral below the pial surface. After drilling a 1 mm burr-hole in the skull, a 2 μl volume of solution was infused at the target site at the rate of 0.5 μl per minute. The needle was held in place for at least 5 minutes after injection to minimize retrograde flow along the needle tract. Mice were given a subcutaneous injection of sterile Ringer ’s solution to help facilitate recovery and carprofen (5 mg/kg) for post-operative pain relief and were placed on a heat-pad until complete recovery from anaesthesia.
# 8-10 week-old C57BL/6J male mice were housed under a 12-hr light cycle in a SPF climate-controlled facility with food and water provided ad libitum for two weeks prior to study initiation.
# mg/kg), or by drinking water (0.3mg/ml), with studies performed at UQ or by CROs. […]
# [10] = Mouse % PPB, plasma protein binding
# [11] = 6, 8 and 10 months, both preventative and therapeutic groups
compound,measurement,setting,value
"CC(C)(O)c1coc(S(=O)(=O)NC(=O)Nc2c3c(cc4c2CCC4)CCC3)c1 [MCC950, reference compound]",Tolerability in single-dose pharmacokinetic studies,[1],well tolerated
same,bioavailability,"[1]; male, C57BL/6J, mouse, mice",71%
same,Oral half-life,[1]; mice,2.4 h
same,IC50,CYP1A2,20 µM
same,IC50,CYP2C9,43 µM
same,IC50,CYP2D6,> 50 µM
same,IC50,CYP3A4,> 50 µM
same,inhibition at 30 µM,[2],21 ± 4.3%
same,Human % PS,Human plasma stability,96%
same,Mouse % PS,Mouse plasma stability,99%
same,fraction unbound,[3],0.005
same,fraction unbound,[4]; [10],0.006
same,half-life,[5],> 145 min
same,half-life,[6],> 145 min
CC(C)n1ccc(S(=O)(=O)NC(=O)Nc2c3c(cc4c2CCC4)CCC3)n1 [MCC7840],Inhibitory activity at NLRC4 inflammasome,NLRC4 inflammasome,not active
same,Inhibitory activity at AIM2 inflammasome,AIM2 inflammasome,not active
same,Inhibition or activation activity at any of 95 off-targets,[7],≤ 35%
same,Tolerability in single-dose pharmacokinetic studies,[1],well tolerated
same,bioavailability,"[1]; male, C57BL/6J, mouse, mice",68%
same,Kp at 2 h,"[1]; male, C57BL/6J, mouse, mice, oral administration 20 mg/kg, total brain concentration, read-out: Brain-to-plasma ratio",~0.035
same,Oral half-life,[1]; mice,5.0 h
same,Gadolinium T1 relaxation time decrease (blood-brain barrier leakage),[8],absent
same,Loss of 18F-FBCTT signal (DAT),[8]; Day 26,"significant, but not complete protection"
same,6-OHDA-induced increase in plasma IL-1β,[8]; Day 28,effectively suppressed
same,Reduced ipsilateral 18F-FDOPA signal (dopamine uptake),[8]; Day 28,significantly protected
same,Rotarod motor deficit,"PFF-Syn mouse model; 4 months post-injection, preventative (pre-PFF) group, 0.3 mg/ml drinking water",significantly attenuated
same,Balance beam crossing latency,"PFF-Syn mouse model; 4 months, pre-treated mice",significantly reduced
same,Balance beam performance,PFF-Syn mouse model; [11],improved balance beam performance
same,Rotarod progressive motor decline,PFF-Syn mouse model; [11],significantly protected
same,Striatal dopamine loss and reduced metabolite levels,"PFF-Syn mouse model; both dosing regimens, after PET imaging",significantly protected
same,18F-DPA-714 PET signal,"PFF-Syn mouse model; both preventative and therapeutic groups, PET/MRI at 12 months (11 months in methods)",significantly reduced
same,PFF-Syn-induced plasma IL-1β increase,PFF-Syn mouse model; preventative group,fully suppressed
same,Reduction of PFF-Syn-induced plasma IL-1β,PFF-Syn mouse model; therapeutic group (from 4 months post-PFF),~70%
same,"Safety, tolerability and pharmacokinetics in Phase I",healthy subjects,"excellent safety, tolerability and pharmacokinetic profile"
same,IC50,CYP1A2,19 µM
same,IC50,CYP2C9,46 µM
same,IC50,CYP2D6,> 50 µM
same,IC50,CYP3A4,> 50 µM
same,inhibition at 30 µM,[2],4.5 ± 3.1%
same,Human % PS,Human plasma stability,100%
same,Mouse % PS,Mouse plasma stability,89%
same,fraction unbound,[3],0.003
same,fraction unbound,[4]; [10],0.005
same,fraction unbound,"[4]; Plasma protein binding, stated in text with mouse pharmacokinetics",< 0.01
same,half-life,[5],> 145 min
same,half-life,[6],> 145 min
same,ED50,[9]; read-out: ED50 for dopamine loss (striatal dopamine content),~2.2 mg/kg
same,ED50,[9]; read-out: ED50 for motor behaviour (amphetamine-induced ipsilateral rotations),~0.9 mg/kg
same,Amphetamine-induced rotations,"[9]; all doses (1, 3, 10 mg/kg p.o. daily), Day 21",significantly reduced
same,Striatal dopamine and its metabolites DOPAC and HVA,"[9]; all treatment groups (1, 3, 10 mg/kg p.o. daily), Day 28",significant preservation
